In the test the test system is K14 mouse. The test can be described thus: K14 mouse model of type 2 Gaucher disease. The class given is in vivo. The text has this: As noted above, Gaucher Disease results from a deficiency of the lysosomal enzyme glucocerebrosidase (GC). In the most common phenotype of Gaucher disease (type 1), pathology is limited to the reticuloendothelial and skeletal systems and there are no neuropathic symptoms. See Barranger, Glucosylceramide lipidosis: Gaucher disease. In: Scriver CR BA, Sly WS, Valle D, editor. The Metabolic Basis of Inherited Disease. New York: McGraw-Hill. pp. 3635-3668 (2001). In neuropathic Gaucher disease (nGD), subdivided into type 2 and type 3 Gaucher disease, the deficiency of glucocerebrosidase (GC) causes glucosylceramide (GluCer; GL-1) and glucosylsphingosine (GluSph) to accumulate in the brain, leading to neurologic impairment. Type 2 Gaucher disease is characterized by early onset, rapid progression, extensive pathology in the viscera and central nervous system, and death usually by 2 years of age. Type 3 Gaucher disease, also known as subacute nGD, is an intermediate phenotype with varying age of onset and different degrees of severity and rates of progression. Goker-Alpan et al., The Journal of Pediatrics 143: 273-276 (2003). A recent development has produced the K14 lnl/lnl mouse model of type 2 Gaucher disease (hereinafter, the “K14 mouse”); this mouse model closely recapitulates the human disease showing ataxia, seizures, spasticity and a reduced median lifespan of only 14 days. Enquist et al., PNAS 104: 17483-17488 (2007).
As in patients with nGD, several mouse models of the disease have increased levels of GluCer and GluSph in the brain due to the deficiency in GC activity. Liu et al., PNAS 95: 2503-2508 (1998) and Nilsson, J. Neurochem 39: 709-718 (1982). The “K14” mice display a neuropathic phenotype that shares many pathologic features with type 2 Gaucher disease, such as neurodegeneration, astrogliosis, microglial proliferation, and increased levels of GluCer and GluSph in specific brain regions. Enquist et al. (2007).
Clinical management of patients affected by nGD poses a challenge for treating physicians both because of the severity of type 2 disease and the inability of the current therapies to cross the blood brain barrier (BBB). Current treatment of non-nGD relies on the intravenous delivery of recombinant human glucocerebrosidase (Imiglucerase; Cerezyme™) to replace the missing enzyme or the administration of glucosylceramide synthase inhibitors to attenuate substrate (GL-1) production. […] Current small molecule glucosylceramide synthase inhibitors in the clinic are not likely to address the neuropathic phenotypes of nGD.

Each structure is given as a SMILES string.

For the compound `CC(C)(NC(=O)OC1CN2CCC1CC2)c1cccc(-c2ccc(F)cc2)c1` (stereo not shown) [Gz161, Quinuclidin-3-yl (2-(4′-fluoro-[1,1′-biphenyl]-3-yl)propan-2-yl)carbamate], the “brain GluCer” value is on record as “reduce”, the “brain GluSph” value is reported as “reduce”, the brain neuropathology entry was “reduced” and the lifespan entry was “extended”.

The values are drawn from US12060349B2, “Glucosylceramide synthase inhibitors” (Genzyme Corporation, priority 2012, dated 2024).
